BindingDB's records for doi:10.1021/jm980560x (University of Minnesota, 1999)

Biological target: Sigma-2 receptor (Rattus norvegicus)
Assay: Binding affinity against Sigma-2 receptor in rat liver membranes using [3H]DTG (DuPont-NEN) as radioligand in the presence of (+)-pentazocine (100 nM)

SMILES	Ki [nM]
O[C@@H]1C[C@H]2CCCN(C/C=C/I)[C@@H]2C[C@H]1N1CCC(c2ccccc2)CC1 [(4aR,6R,7R,8aR)-1-((E)-3-Iodo-allyl)-7-(4-phenyl-piperidin-1-yl)-decahydro-quinolin-6-ol]	363
O[C@@H]1CCN(Cc2cccc(I)c2)C[C@H]1N1CCC(c2ccccc2)CC1 [(-)-1''-(3-Iodo-benzyl)-4-phenyl-[1,3'']bipiperidinyl-4''-ol]	190

Biological target: not listed separately
Assay: Displacement of [3H]vesamicol from Vesicular Acetylcholine Transporter (VAChT)

SMILES	Ki [nM]
O[C@@H]1C[C@@H]2[C@H](CCCN2Cc2cccc(I)c2)C[C@H]1N1CCC(c2ccccc2)CC1 [(4aR,6R,7R,8aR)-1-(3-Iodo-benzyl)-6-(4-phenyl-piperidin-1-yl)-decahydro-quinolin-7-ol]	5.2
O[C@@H]1CCNC[C@H]1N1CCC(c2ccccc2)CC1	2900

The remaining lines, values ahead:

Ki [nM]	SMILES
0.4	O[C@@H]1C[C@H]2CCCN(C/C=C/I)[C@@H]2C[C@H]1N1CCC(c2ccccc2)CC1 [(4aR,6R,7R,8aR)-1-((E)-3-Iodo-allyl)-7-(4-phenyl-piperidin-1-yl)-decahydro-quinolin-6-ol]
0.99	O[C@@H]1C[C@H]2CCCN(Cc3ccc(F)cc3)[C@@H]2C[C@H]1N1CCC(c2ccccc2)CC1 [trans-trans-1-(4-fluorobenzyl)-7-(4-phenylpiperidin-1-yl)-decahydroquinolin-6-ol]
0.26	O[C@@H]1C[C@H]2CCCN(Cc3cccc(I)c3)[C@@H]2C[C@H]1N1CCC(c2ccccc2)CC1 [trans-trans-1-(3-iodobenzyl)-7-(4-phenylpiperidin-1-yl)-decahydroquinolin-6-ol]
0.3	O=C(c1ccccc1)N1CCC[C@@H]2C[C@@H](O)[C@H](N3CCC(c4ccccc4)CC3)C[C@H]21 [[(4aR,6R,7R,8aR)-6-Hydroxy-7-(4-phenyl-piperidin-1-yl)-octahydro-quinolin-1-yl]-phenyl-methanone]
10	O[C@@H]1C[C@@H]2[C@H](CCCN2Cc2ccc(F)cc2)C[C@H]1N1CCC(c2ccccc2)CC1 [(4aR,6R,7R,8aR)-1-(4-Fluoro-benzyl)-6-(4-phenyl-piperidin-1-yl)-decahydro-quinolin-7-ol]
